Reference: patent publication US20180265867A1, “NUCLEIC ACID MOLECULES WITH ENHANCED ACTIVITY” (priority 2015, published 2018)
d = 2'-deoxy (DNA); r = 2'-OH (RNA)

Assays:
[1] = test system: A2780 human ovarian cancer cells; assay: Cell viability (ApoTox-Glo Triplex Assay) in A2780 cells; assay type: cell-based; conditions: 10 nM to 1000 nM, 48 h (FIG. 15)
Experimental: Cell viability study of 5-FU and siRNA derivatives bearing 5FU molecules were performed using, ApoTox-Glo™ Triplex Assay kit following manufacturer's protocol. Briefly, A2780 human ovarian cancer cells were seeded in 384 well BD Facon black plates (1000 cells in 50 μL/well) using automated Biomek FX pipetting workstation and incubated at 37° C. for 24 h for cell attachment. Stock solution of 5FU, siRNA-5FU2 and siRNA 5FU5 was prepared in cell culture medium (DMEM) respectively. siRNA-5FU2 and siRNA 5FU5 corresponds to Stat3 siRNA bearing 2 or 5 molecules of 5FU at the 3′end of the sense strand. After 24 h, different volume of stock solution was added to each well using non-contact acoustic dispenser (Echo 555), to obtain a gradient concentration ranging from 10 nM to 1000 nM and incubated for additional 48 h at 37° C. After 48 h, 20 μl of medium was treated with 5 μl of cell viability assay reagent, containing both GF-AFC substrate and bis-AAF-R110 substrate and incubated for 30 min at 37° C. Fluorescence values were recorded at two wavelength sets: 400Ex/505Em (Viability) and 485Ex/520Em (Cytotoxicity) using Envision Multilabel Plate Reader and the cell viability were obtained as a percentage of the untreated control (100% cell viability). […] All the cell experiments were measured in triplicate.

Ctnnb1 (β-Catenin) = assay: Ctnnb1 expression in MC3T3-E1 cells by quantitative RT-PCR; assay type: cell-based, mouse
Experimental: (§1) MC3T3-E1 cells were cultured in α-MEM (Sigma-Aldrich, Haverhill, UK) medium containing 10% FBS, 1% L-Glutamine, and 1% antibiotics (PeSt) at 37° C. with 5% CO2. One day prior to the miRNA treatment, 35,000 cells were plated per each well of a 24-well plate. On the experiment day, cells were replaced with 2% heat inactivated-FBS containing α-MEM medium with 1% L-Glutamine, and 1% antibiotics (PeSt). miR-34a-CP (final concentration: 50 nM) was given to the each well. Mirvana scrambled miRNA mimic was used as a negative control.
After 24 hours of transfection, and incubation, RNA extraction was performed by using miRCURY RNA Isolation Kit—Cell and Plant (#300100) and protocol from Exiqon, Vedbæk, Denmark. RNA samples were treated with DNase for 30 minutes at 37 degrees, thereafter inactivated with a DNase inactivation solution (TUTRBO DNase AM2238 thermofisher). Thereafter, RNA concentrations were measured using NanoDrop ND-1000 from NanoDrop Technologies, Wilmington, Del.
The cDNA was made from the total RNA using High Capacity cDNA reverse transcription kit (Applied Biosystems, USA). Reactions were performed on a 96-well Bio-Rad Thermal Cycler PCR System at 37° C. for 60 minutes, and at 95° C. for 5 min respectively. Real-time PCR reactions were performed as follows: 10 μl of 2×TaqMan® Universal PCR Master Mix, no AmpErase® UNG (Applied Biosystems, USA), 9 μl 1:5 diluted cDNA, and 1 μl of TaqMan gene specific assay mix. Final volume of the reaction mix was 20 uL. Internal control gene beta-actin (ACTB) (Applied Biosystems, USA) was selected as control for normalization of TaqMan data. The qRT-PCR reaction comprised a non-template control of cDNA in order to rule out any non-specific reading. Taqman probes for Ctnnb1, Sox9, Actb, were obtained from Applied Biosystems. The qRT-PCR amplification was carried out using the Bio-Rad qRT-PCR Thermocycler.
In order to achieve the transfection reagent free delivery of therapeutically potential microRNAs, we tested miR-34a and compared with miR-34a-CP. Since microRNAs unlike siRNAs have multiple targets in the cell, and there is a necessity to reduce the off-target and undesirable effects if any, we have also designed siRNA model siR-34a-CP as stated above. We have used mouse preosteoblast cell line MC3T3-E1 obtained from calvarial bone for the in-vitro functional validation of cell-penetrating molecules. On the day before transfection experiment, 35000 MC3T3-E1 cells were cultured per each well of the 24-well culture plate in alpha-Minimum Essential Medium with 10% heat inactivated FBS, 1% L-Glutamine, 1% antibiotics (Pe/St). […] 5% CO2. Thereafter, RNA extraction, cDNA preparation, and quantitative real-time PCR was performed by using TaqMan procedure.

SOX9 = SOX9 expression in MC3T3-E1 cells by real-time PCR; assay type: cell-based, mouse; conditions: MC3T3-E1 cells (FIG. 13)
Experimental: as §1
After 24 hours of transfection, and incubation, RNA extraction was performed by using miRCURY RNA Isolation Kit—Cell and Plant (#300100) and protocol from Exiqon, Vedbæk, Denmark. […] Thereafter, RNA concentrations were measured using NanoDrop ND-1000 from NanoDrop Technologies, Wilmington, Del.
The cDNA was made from the total RNA using High Capacity cDNA reverse transcription kit (Applied Biosystems, USA). […] The qRT-PCR reaction comprised a non-template control of cDNA in order to rule out any non-specific reading. […]
Since overexpression of Ctnnb1 is indicative of osteogenic differentiation of cells, we determined the expression of transcription factor that could be activated. For this purpose, we measured the levels of […] marker SOX9 that is implicated in endochondral ossification.

| Compound | cytotoxicity [1] | Ctnnb1 expression (Ctnnb1 (β-Catenin); 50 nM, 24 h, alone without transfection reagent (FIG. 11)) | Ctnnb1 expression (Ctnnb1 (β-Catenin); without transfection reagent MaTra (FIG. 12)) | SOX9 levels (SOX9) |
| --- | --- | --- | --- | --- |
| O=c1[nH]cc(F)c(=O)[nH]1 [5FU, 5-Fluorouracil] | dose dependent cytotoxicity |  |  |  |
| miR-34a-CP: Cell penetrating miR-34a, sense SEQ ID NO: 22 with dA5, antisense SEQ ID NO: 23 (sense CAAUCAGCAAGUAUACUGCCCUAAAAA; antisense UGGCAGUGUCUUAGCUGGUUGU; sense: sugars from the 5' end r22 d5, backbone not given here; antisense: RNA, backbone not given here) |  | up regulation of Ctnnb1 | up regulation of Ctnnb1 | upregulated |
